Here are results for one molecule from US8138166B2, “Method to induce fatty liver in animal” (Taipei Medical University, priority 2010, dated 2012).

Test [1] has as its system liver. Put plainly: Liver biochemical analysis (liver lipids, TBARS, TNF-α, hydroxyproline). The conditions noted are these: experimental group: 60% high fat diet + rotenone i.p., 8 weeks. It counts as in vivo, SD rats. An excerpt: (§1) SD rats are selected to use as the laboratory animals in the present embodiment. All SD rats are bred at the cages, and adequate feeds and water are given during the adaptive period and the experimental period. After the adaptive period, the SD rats are randomly divided into three groups concluding a control group, an experimental group, and a contrast group, and there are 6 SD rats in each group. In the control group, the SD rats are fed with AIN-93M diet. The SD rats in the experimental group are fed with the modified AIN-93M diet whose fat calorie is accounted for 60% of total calorie thereof, and the mitochondrial inhibitor (rotenone) is injected into the SD rats via an intraperitoneal injection once every two days. The dosage of the rotenone is about 2.5 mg/kg/day. The components of the diet and the fat percentage in the contrast group and the experimental group are the same. Normal saline is injected into the SD rats in the contrast group via the intraperitoneal injection to differentiate from the experimental group. After feeding 8 weeks, the SD rats in each group are sacrificed to collect arteria coeliaca blood and to obtain livers after perfusing 0.9% normal saline thereinto for determining the pathological analysis of the liver, the blood biochemical analysis and the liver biochemical analysis.
The lipid extracts are obtained from the livers of the SD rats in each group to analyze the contents of total cholesterol, triglyceride, and non-esterified fatty acids, as shown below Table 2.
Additionally, if oxidative stress, such as reactive oxygen species (ROS), is increased in vivo, lipid peroxides may be increased. Because the half life of the ROS is shorter than that of the lipid peroxides, the lipid peroxides, such as thiobarbituric acid-reactive-substance (TBARS), are used as the oxidative stress index. The livers of the SD rats in each group are respectively prepared to obtain homogeneous liquids for analyzing the concentration of the TBARS by a fluorophotometer. […] The concentrations of the TBARS in the control group, the experimental group and the contrast group are respectively 0.51±0.05, 2.18±0.19 and 1.15±0.09 μM/mg protein. That means in the experimental group, the oxidative stress in the livers of the SD rats is highest.
In the NAFLD progression, when high oxidative stress is existed in a liver for a long time, inflammatory cytokines, such as tumor necrosis factor-alpha (TNF-α), are increased. After the SD rats are sacrificed, the concentration of the TNF-α is determined to analyze whether the inflammatory response is induced or not. […] The concentrations of TNF-α in the control group, the experimental group, and the contrast group are respectively 13.96±1.05, 21.34±0.77, and 19.51±1.11 pg/mg protein. Following the results as set forth, the livers of rats in the experimental group have the inflammatory response. […] But, once livers are existed in high oxidative stress, the liver injuries thereof from simple steatosis to necrosis or fibrosis are performed. Therefore, the collagen index (i.e. the fibrosis index), hydroxyproline, in the livers should be determined. The concentrations of the hydroxyproline in the control group, the experimental group, and the contrast group are 3.32±1.05, 6.68±0.77, and 4.05±1.11 μg/mg protein, respectively. It indicates the concentration of the hydroxyproline in the experimental group is higher than those of in the control group and the contrast group.

Test [2] relates to cytochrome c oxidase (CCO), mitochondrial complex IV. Put plainly: CCO activity in hepatocytes. Format: in vivo, SD rats. The conditions noted are these: experimental group: 60% high fat diet + rotenone i.p., 8 weeks.
From the text: as §1
(§2) Rotenone is hydrophobic, and can diffuse to organelles including mitochondria. […]

The subject of test [3] is NADH cytochrome c reductase (NCCR), mitochondrial complex I and III. Put plainly: NCCR activity in hepatocytes. Format: in vivo, SD rats. The note with it: experimental group: 60% high fat diet + rotenone i.p., 8 weeks.
From the text: as §1, §2

Test [4] has as its system succinate cytochrome c reductase (SCCR), mitochondrial complex II and III. Put plainly: SCCR activity in hepatocytes. It counts as in vivo, SD rats. The conditions noted are these: experimental group: 60% high fat diet + rotenone i.p., 8 weeks.
From the text: as §1, §2

Test [5] is described as follows: Blood biochemical analysis and liver function index. Format: in vivo, SD rats. The note with it: experimental group: 60% high fat diet + rotenone i.p., 8 weeks.
From the text: as §1
The blood biochemical analyses of cholesterol, triglyceride, and non-esterified fatty acids are examined. The liver function indexes of aspartate aminotransferase (AST) and alanine aminotransferase (ALT) are also analyzed.

A short description of a further test: Visceral fat weight. It counts as in vivo, SD rats. The conditions noted are these: experimental group: 60% high fat diet + rotenone 2.5 mg/kg/day i.p. once every two days, 8 weeks; epididymis and perirenal adipose tissue.
From the text: as §1, with “analysis. […]” for “analysis.”

The test system of another test is mitochondrial complex I. In words: Mitochondrial complex I activity inferred from NCCR and SCCR activity. It counts as in vivo, SD rats. The conditions noted are these: experimental group: 60% high fat diet + rotenone i.p., 8 weeks; combined NCCR and SCCR results.
From the text: as §1, §2

The test system of test [6] is liver. Put plainly: Liver histopathology (H&E staining) of SD rats fed high fat diet and injected with rotenone. Format: in vivo. The note with it: experimental group: 60% high fat diet + rotenone 2.5 mg/kg/day i.p., 8 weeks.
From the text: as §1
Livers of the SD rats in each group are all stained by H&E staining. […]

Molecules are shown by their SMILES.

For `C=C(C)[C@H]1Cc2c(ccc3c2O[C@@H]2COc4cc(OC)c(OC)cc4[C@@H]2C3=O)O1` [rotenone], the “concentration of TNF-α” value in the test with liver [1] is reported as 21.34±0.77 pg/mg protein. In the test with liver [1] (collagen/fibrosis index), the “concentration of hydroxyproline (liver)” value is given as 6.68±0.77 μg/mg protein. Further, in the test with liver [1] (liver homogenate, fluorophotometer), the “concentration of TBARS (liver)” value was found to be 2.18±0.19 μM/mg protein. In the test with liver [1] (liver lipid extract), the “Non-esterified fatty acids (liver)” value was determined as 5.02 ± 0.38 µmol/g, the “Total cholesterol (liver)” value came out at 131.74 ± 5.30 mg/dL and the “Triglyceride (liver)” value came out at 6.78 ± 0.55 mg/dL. Further, the CCO activity in test [2] is given as 5.57 ± 2.88 nmol/cytochrome c oxidized/min/mg protein. In addition, in test [3], the NCCR activity was 0.68 ± 0.26 nmol/cytochrome c reduced/min/mg protein. In addition, the SCCR activity in test [4] is given as 0.51 ± 0.05 nmol/cytochrome c reduced/min/mg protein. Further, in test [5], the ALT was 39.4 ± 2.61 IU/L, the AST is reported as 90.1 ± 13.68 IU/L, the “Cholesterol (blood)” value amounted to 73.4 ± 7.61 mg/dL and the “Triglyceride (blood)” value turned out to be 60.1 ± 10.15 mg/dL. Besides, the visceral fat weight in the test “Visceral fat weight” amounted to 51.28±3.41 grams. The “mitochondrial complex I activity versus control group and contrast group” value in the test on mitochondrial complex I is “lower”. Moreover, the “cell morphology (H&E staining of liver)” value in the test on liver [6] was “lipid drops and ballooning degeneration”.
